Entries after “also recorded” stand apart in the source; their conditions may differ. Like-named read-outs stand apart in the source and are kept apart here.
Tests used:
K562-S cells = test: In vitro cytotoxicity, NIL-sensitive K562 cells (trypan blue / XTT); format: cell-based; conditions: 0.5 and 5 μM, 48 h
Procedure: K562 cells (CCL-243 ATCC) were cultured in RPMI 1640 (L0500, Biowest, Riverside, MO, USA) supplemented with 10% Fetal Bovine Serum (FBS) and 1% penicillin–streptomycin and incubated at 37 °C in 5% CO2. K562 cells were seeded at a concentration of 1 × 10^5 cells/mL of culture medium. […] Briefly, cells were harvested by centrifugation and resuspended in 5 mL of fresh medium; then an aliquot of 10 μL was taken and mixed with Trypan Blue (93595, Sigma-Aldrich, Milan, Italy) stain (1:1). The mixture was applied on a counting chamber, and cells were counted on a binocular microscope. […] Once resistance was established (after approximately 9 months), K562-R and K562-S were treated with compounds at different concentrations.
Treatments were maintained for 48 h, and then cell viability was assessed: (a) with 0.2% (final concentration) trypan blue dye exclusion analysis which is used to determine the number of viable cells present in a cell suspension and (b) with XTT assay.
• (a) Briefly, the cell number was determined by counting the viable cells in a Burker counting chamber divided into 16 fields of 1 mm^2. […]

BCR-ABL kinase = BCR-ABL kinase (Homo sapiens, UniProt P00519); test: FRET-based Z'-Lyte kinase assay
Sequence of BCR-ABL kinase (P00519 whole entry): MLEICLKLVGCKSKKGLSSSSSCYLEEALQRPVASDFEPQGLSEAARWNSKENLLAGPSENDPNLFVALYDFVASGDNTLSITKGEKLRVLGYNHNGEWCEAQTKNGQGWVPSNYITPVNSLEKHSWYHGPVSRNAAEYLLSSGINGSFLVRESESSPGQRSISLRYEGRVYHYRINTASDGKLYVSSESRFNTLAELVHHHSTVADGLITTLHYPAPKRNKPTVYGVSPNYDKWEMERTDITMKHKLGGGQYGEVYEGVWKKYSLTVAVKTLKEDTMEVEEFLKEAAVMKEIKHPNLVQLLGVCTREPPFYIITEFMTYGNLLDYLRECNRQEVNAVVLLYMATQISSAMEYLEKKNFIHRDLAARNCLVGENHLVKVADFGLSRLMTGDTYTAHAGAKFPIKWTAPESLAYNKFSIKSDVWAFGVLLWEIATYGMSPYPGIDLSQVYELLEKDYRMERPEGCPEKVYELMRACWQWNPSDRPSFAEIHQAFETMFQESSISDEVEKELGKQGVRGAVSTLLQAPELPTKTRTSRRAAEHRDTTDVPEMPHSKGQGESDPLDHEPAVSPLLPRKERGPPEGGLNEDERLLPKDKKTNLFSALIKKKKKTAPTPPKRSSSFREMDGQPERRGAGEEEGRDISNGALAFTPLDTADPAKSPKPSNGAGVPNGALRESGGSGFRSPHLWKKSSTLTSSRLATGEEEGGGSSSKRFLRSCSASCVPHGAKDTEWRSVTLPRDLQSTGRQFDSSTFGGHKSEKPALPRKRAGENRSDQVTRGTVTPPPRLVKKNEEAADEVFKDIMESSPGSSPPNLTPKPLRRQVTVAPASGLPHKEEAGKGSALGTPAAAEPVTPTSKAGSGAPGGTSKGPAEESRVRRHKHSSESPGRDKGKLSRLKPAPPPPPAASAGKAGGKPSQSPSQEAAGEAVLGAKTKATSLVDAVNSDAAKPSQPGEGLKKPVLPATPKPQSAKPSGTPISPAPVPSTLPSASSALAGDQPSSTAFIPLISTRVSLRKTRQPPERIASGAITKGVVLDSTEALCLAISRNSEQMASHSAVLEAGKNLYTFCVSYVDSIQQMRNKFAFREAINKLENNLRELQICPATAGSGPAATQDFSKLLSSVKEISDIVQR
Procedure: Novel compounds were tested to investigate their ability to inhibit both BCR-ABL TK and HO-1.

HO-1 = biological target: T1, HO-1 (Rattus norvegicus, UniProt P06762); test: HO-1 enzymatic activity in microsomal fraction of rat spleen (bilirubin formation); format: biochemical
T1 construct: This microsomal preparation represents the most native (i.e., closest to in vivo) form of HO-1; from tissue; host or cells: rat spleen microsomes (male Sprague-Dawley rats)
T1 sequence (P06762 1-289): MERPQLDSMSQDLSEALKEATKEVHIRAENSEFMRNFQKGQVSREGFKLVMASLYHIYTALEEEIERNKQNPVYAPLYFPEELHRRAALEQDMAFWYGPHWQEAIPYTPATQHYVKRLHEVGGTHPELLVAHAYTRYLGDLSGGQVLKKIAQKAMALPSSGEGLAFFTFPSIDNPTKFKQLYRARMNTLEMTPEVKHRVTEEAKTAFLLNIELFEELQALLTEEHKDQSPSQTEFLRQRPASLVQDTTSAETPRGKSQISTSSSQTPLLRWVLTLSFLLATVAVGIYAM
Procedure: HO-1 activity was measured in microsomal fractions of rat spleen obtained as described in the experimental section. The activity was determined by measuring the bilirubin formation using the difference in absorbance at 464–530 nm. HO-1 inhibitors LS/0 and LS1/71 were used as reference compounds. […] Nevertheless, some observed differences in the results among the tested compounds allow us to discuss SAR as follows. HO-1 inhibitory activity mainly depends on the position of the oxybutylimidazole moiety and only to a lesser extent on the R substituent on the benzamide ring.
Since HO-1 protein is abundant in the rat spleen as well documented, rat spleen microsomal fraction prepared by differential centrifugation was used as source of the HO-1 protein. This microsomal preparation represents the most native (i.e., closest to in vivo) form of HO-1. Spleen microsomal fractions were obtained according to Ryter et al.. The experiments reported in the present paper complied with current Italian law and met the guidelines of the Institutional Animal Care and Use Committee of Ministry of Health (Directorate General for Animal Health and Veterinary Medicines, Italy) “Dosing of enzymatic activities in rat microsomes” (2018–2022), project code 02769.N.VLY. Male Sprague–Dawley albino rats (150 g body weight and age 45 d) used in our experimental conditions to obtain spleen microsomal fraction had free access to water and were kept at room temperature with a natural photo-period (12 h light–12 h dark cycle). To obtain a homogenate (15%, w/v) of spleens, each rat was sacrificed, and its spleen was excised and weighed. Spleens pooled from five rats were homogenized in 50 mM Tris buffer, pH 7.4, containing 0.25 M sucrose, using a Potter–Elvehjem homogenizing system with a Teflon pestle. The microsomal fraction of rat spleen homogenate was obtained by differential centrifugation: first centrifugation at 10,000× g for 20 min at 4 °C and a second centrifugation of the supernatant at 100,000× g for 60 min at 4 °C. The 100,000× g pellet (microsomes) was resuspended in 100 mM potassium phosphate buffer, pH 7.8, containing 2 mM MgCl2. The rat spleen fraction was divided into aliquots and stored at −80 °C for up to 2 months, and then its protein concentration was measured.
Biliverdin reductase was obtained by using rat liver cytosol. Three volumes of a solution 1.15% KCl w/v and Tris buffer 20 mM, pH 7.8, were used to homogenize on ice liver tissue. The 10,000× g supernatant was obtained by differential centrifugation: first centrifugation at 10,000× g for 20 min at 4 °C and a second centrifugation at […] at 4 °C to sediment the microsomes. The 10,000× g supernatant was stored in small amounts at −80 °C, and then its protein concentration was measured.
The HO-1 activity was determined by measuring the bilirubin formation using the difference in absorbance at 464–530 nm, as described by Ryter et al.. A final volume of 500 μL of incubation mixtures contained 20 mM Tris–HCl, pH 7.4, (1 mg/mL) microsomal extract, 0.5–2 mg/mL biliverdin reductase, 1 mM NADPH, 2 mM glucose 6-phosphate (G6P), 1 U G6P dehydrogenase, 25 μM hemin, and 10 μL of DMSO (or the same volume of DMSO solution of test compounds to a final concentration of 100, 10, and 1 μM). Enzymatic reactions were carried out in the dark for 60 min at 37 °C in a circulating water bath. The reactions were stopped by the addition of 500 μL of chloroform. After recovering the chloroform phase, the amount of bilirubin formed was measured with a double-beam spectrophotometer as OD464–530 nm (extinction coefficient, 40 mM/cm^−1 for bilirubin). The enzymatic activity was defined as Units (one Unit is the amount of enzyme catalyzing the formation of 1 nmol of bilirubin/mg protein/h).

[1] = experimental HO-1 IC50 repeated in Table 3, read-out: IC50
[2] = rat spleen microsomal fraction, read-out: HO-1 IC50 (μM) ± SD

SMILES	K562-S cell viability (K562-S cells)	IC50 (BCR-ABL kinase) [µM]	IC50 (HO-1; [1]) [µM]	IC50 (HO-1; [2]) [µM]	melting point [°C]	IC50 (HO-1; rat spleen microsomal fraction, read-out: HO-1 IC50) [µM]
Cc1ccc(C(=O)Nc2cc(OCCCCn3ccnc3)cc(C(F)(F)F)c2)cc1Nc1nccc(-c2cccnc2)n1 [Compound 1h, N-(3-(4-(1H-imidazol-1-yl)butoxy)-5-(trifluoromethyl)phenyl)-4-methyl-3-((4-(pyridin-3-yl)pyrimidin-2-yl)amino)benzamide]	significant reduction; also recorded: cytotoxic properties similar to NIL and IM	0.77 ± 0.042	65.4	65.4 ± 1.39	180.3 to 182.5	
Cc1ccc(C(=O)Nc2cccc(OCCCCn3ccnc3)c2)cc1Nc1nccc(-c2cccnc2)n1 [Compound 1b, N-(3-(4-(1H-imidazol-1-yl)butoxy)phenyl)-4-methyl-3-((4-(pyridin-3-yl)pyrimidin-2-yl)amino)benzamide]		4.19 ± 0.16	64.6	64.6 ± 0.69	118 to 120	
Cc1ccc(C(=O)Nc2ccc(OCCCCn3ccnc3)cc2)cc1Nc1nccc(-c2cccnc2)n1 [Compound 1a, N-(4-(4-(1H-imidazol-1-yl)butoxy)phenyl)-4-methyl-3-((4-(pyridin-3-yl)pyrimidin-2-yl)amino)benzamide]		0.109 ± 0.0016	44.8	44.8 ± 2.58	140 to 142	
Cc1ccc(C(=O)Nc2cc(OCCCCn3ccnc3)ccc2Br)cc1Nc1nccc(-c2cccnc2)n1 [Compound 1d, N-(5-(4-(1H-imidazol-1-yl)butoxy)-2-bromophenyl)-4-methyl-3-((4-(pyridin-3-yl)pyrimidin-2-yl)amino)benzamide]		16.2 ± 0.208	116	116 ± 5.24	69.8 to 72	
Cc1ccc(C(=O)Nc2ccccc2OCCCCn2ccnc2)cc1Nc1nccc(-c2cccnc2)n1 [Compound 1c, N-(2-(4-(1H-imidazol-1-yl)butoxy)phenyl)-4-methyl-3-((4-(pyridin-3-yl)pyrimidin-2-yl)amino)benzamide]		14.6 ± 0.283	149	149 ± 8.1		
Cc1ccc(C(=O)Nc2cc(Br)cc(OCCCCn3ccnc3)c2)cc1Nc1nccc(-c2cccnc2)n1 [Compound 1g, N-(3-(4-(1H-imidazol-1-yl)butoxy)-5-bromophenyl)-4-methyl-3-((4-(pyridin-3-yl)pyrimidin-2-yl)amino)benzamide]	significant reduction; also recorded: cytotoxic properties similar to NIL and IM	0.077 ± 0.0036	51	51 ± 0.99	162 to 164.4	
Cc1ccc(C(=O)Nc2ccc(Br)cc2OCCCCn2ccnc2)cc1Nc1nccc(-c2cccnc2)n1 [Compound 1i, N-(2-(4-(1H-imidazol-1-yl)butoxy)-4-bromophenyl)-4-methyl-3-((4-(pyridin-3-yl)pyrimidin-2-yl)amino)benzamide]		13.7 ± 0.139	83.4	83.4 ± 2.3	94 to 96	
Cc1ccc(C(=O)Nc2ccc(OCCCCn3ccnc3)c(Br)c2)cc1Nc1nccc(-c2cccnc2)n1 [Compound 1e, N-(4-(4-(1H-imidazol-1-yl)butoxy)-3-bromophenyl)-4-methyl-3-((4-(pyridin-3-yl)pyrimidin-2-yl)amino)benzamide]		0.037 ± 0.0012	55.1	55.1 ± 0.71		
Cc1ccc(OCCCCn2ccnc2)c(NC(=O)c2ccc(C)c(Nc3nccc(-c4cccnc4)n3)c2)c1 [Compound 1j, N-(2-(4-(1H-imidazol-1-yl)butoxy)-5-methylphenyl)-4-methyl-3-((4-(pyridin-3-yl)pyrimidin-2-yl)amino)benzamide]		5.45 ± 0.223	3060	3060 ± 201		~3000
Cc1ccc(C(=O)Nc2ccc(Br)c(OCCCCn3ccnc3)c2)cc1Nc1nccc(-c2cccnc2)n1 [Compound 1f, N-(3-(4-(1H-imidazol-1-yl)butoxy)-4-bromophenyl)-4-methyl-3-((4-(pyridin-3-yl)pyrimidin-2-yl)amino)benzamide]		5.21 ± 0.224	100	100 ± 3.29		

Reference: PMC9143943, “Novel Tyrosine Kinase Inhibitors to Target Chronic Myeloid Leukemia” (Molecules, 2022)
